Patent US20040235795A1, “Utilization of phosphatidylserine in the treatment of attention deficit syndrome (adhs)” (priority 2001, published 2004)
“Also recorded” adds a separate entry of the source.

Key:
ADHS patients = settings: cited from earlier work
[1] = test system: attention deficit syndrome (ADHS) probands; experiment: Open study of phosphatidylserine supplementation in ADHS probands (examples 1 to 4); assay type: in vivo, human
Protocol: Probands in an open study (examples 1 to 4) were selected with the aid of the Wender Utah Rating Scale (WURS) on the basis of their performance at school as well as clinical and physiological tests. They were assessed after 4, 6 and 8 weeks with the short-term supplementation and after 2, 4 and 6 months with the longer supplementation. The probands were examined for measurable differences with regard to concentration, attention, impulsivity, aggression potential and hyperactivity. Questionnaires were used to involve probands, parents and teachers in the evaluation.

[2] = high dosages 200 to 500 mg daily over 4 months
[3] = Example 3: 100 mg per day, 6 months, child, after the third month

For phosphatidylserine, the “improvement of the ADHS symptoms” value (ADHS patients; 100 mg per day over a period of 2 months) is listed as “did not result in a clear improvement”, the “side effects with drugs administered at the same time” value (ADHS patients; 100 to 500 mg daily) is listed as “no side effects occurred” and the “probands with positive effect” value (ADHS patients; 200 to 300 mg daily (severe symptoms up to 500 mg daily) over 4 months, probands aged 3 to 19 years) is listed as 25 of 27. For the same substance, the “improvement in single proband one” value (ADHS patients; [2]) was “not possible to make a clear statement about an improvement”, the “improvement in single proband two” value (ADHS patients; [2]) was “only a slight improvement” and the habituation effects ([1]; ADHS patients / probands with ADHS) was “no habituation effects occurred”. The “general well-being (reported by proband)” value ([1]; Example 2: 200 mg three times daily, 7 weeks, child) was “improvement”, the hyperactivity ([1]; Example 2: 200 mg three times daily, 7 weeks, child, end of supplementation) was “marked decline” and the “attentiveness, concentration and memory performance as well as achievement at school” value ([1]; Example 3: 100 mg per day, 6 months, child) was “improved considerably”. The general well-being [1, 3] was “improvement”, the mood [1, 3] was “uplift” and the tolerance ([1]; even in high doses and over a longer supplementation period) was “no limitation whatsoever on its wellknown good tolerance; also recorded: well tolerated”.
